Test results from patent US20040038888A1 (priority 2002, published 2004).
Ends that are not written are not given here.

Tests used:
[1] = test system: mouse adult neural stem cells; assay: Intracellular ATP assay, adult mouse NSC, non-adherent culture; format: cell-based; details: for effect of inhibitor on the PACAP increase of intracellular ATP: co-incubated with PACAP 100 nM, 4 days, 10 uM H89, 1 uM U73122, 1 uM Gö6976
Procedure: The anterior lateral wall of the lateral ventricle of 5-6 week old mice was enzymatically dissociated in 0.8 mg/ml hyaluronidase and 0.5 mg/ml trypsin in DMEM containing 4.5 mg/ml glucose and 80 units/ml DNase at 37° C. for 20 min. The cells were gently triturated and mixed with three volumes of Neurosphere medium (DMEM/F12, B27 supplement, 12.5 mM HEPES pH7.4) containing 20 ng/ml EGF (unless otherwise stated), 100 units/ml penicillin and 100μg/ml streptomycin. After passing through a 70 μm strainer, the cells were pelleted at 160×g for 5 min. The supernatant was subsequently removed and the cells resuspended in Neurosphere medium supplemented as above, plated out in culture dishes and incubated at 37° C. Neurospheres were ready to be split approximately 7 days after plating.
To split neurosphere cultures, neurospheres were collected by centrifugation at 160×g for 5 min. The neurospheres were resuspended in 0.5 ml Trypsin/EDTA in HBSS (1×), incubated at 37° C. for 2 min and triturated gently to aid dissociation. Following a further 3 min incubation at 37° C. and trituration, 3 volumes of ice cold NSPH-media-EGF were added to stop further trypsin activity. The cells were pelleted at 220×g for 4 min, resuspended in fresh Neurosphere medium supplemented with 20 ng/ml EGF and 1 nM bFGF plated out and incubated at 37° C.
Mouse neurospheres, cultured as described above, from passage 2, were seeded in DMEM/F12 supplemented with B27 into a 96-well plate as single cells (10000 cells/well) to the substances to be measured were added at the concentrations indicated. After 3 days incubation, intracellular ATP was measured using the ATP-SL kit from BioThema, Sweden, according to the manufacturer's instructions. PACAP and VIP were purchased from Bachem. Maxadilan was a kind gift from Richard G Titus, Dept Microbiology, Immunology and Pathology, College of Veterinary Medicine and Biological Sciences, Colorado State University.
In experiments where signalling pathways were examined, cells were seeded as single cells as mentioned above. PACAP, 100 nM, was co incubated with 10 uM PKA inhibitor H89 (Alexis-Biochemicals) or 1 uM PLC inhibitor U73122 (Alexis-Biochemicals) or 1 uM of the PKC inhibitor Gö6976 (Sigma-Aldrich). Cells were incubated for 4 days before measurements of ATP.
In the experiment analysing the combinatory effect of PACAP and EGF, PACAP at 100 nM was co-incubated with 3 nM EGF for 3 days.

AP-1 = AP-1 transcription factor reporter assay; format: cell-based, mouse; details: PD89059 10 μM with PACAP 100 nM
Procedure: Vectors: Vector DNA containing reporter elements for AP-1 and empty cloning vector (pTAL), with a luciferace reporter were purchased from Promega. The vectors were propagated in E. coli strain JM-109 (Promega) and purified with Qiagens maxi-prep Kit (Qiagen). The concentration was diluted to approximately 1 mg/ml per vector.
Transfection: Transient transfection was performed by seeding cells as above in suspension neurosphere cell culture and adherent neurosphere cell culture (1 to 3 day incubation) using 30,000 single cells/well. Each well was transiently transfected with […] plasmid, 0.6 μg Nupherin-neuron (Biomol) and 0,6 μl of Fugene-6 (Roche). Plasmid and Nupherin was mixed and diluted in DMEM/F12 to a total volume of 50 μl/well, and were incubated for 15 minutes prior to mixing with Fugene-6 that were diluted in DMEM/F12 to a total volume of 50 μl/well. The mix of plasmid and Nupherin and Fugene-6 were incubated for 20 min. The volume was adjusted to 100 μl prior to addition of 100 μl/well of transfection reagent.
Assay: The following day the transiently transfected cells were applied with PACAP (Bachem) to final concentration of 100 nM/well, in the presence or absence of MEK inhibitor, […] (Sigma-Aldrich). Luciferace activity was analysed with steady glow (Promega) according to the instructions of the manufacturer. Cells were analysed 20 hours after induction with PACAP.

NSC from LVW = assay: Culture of NSC for cell counting; format: cell-based, mouse; details: PACAP 100 nM, VEGF 1 nM, in place of EGF, 7 days; VEGF relative to PACAP treated NSC
Procedure: Anterior lateral ventricle wall was dissected and the cells treated as stated above, however, in place of EGF, the medium was supplemented either with PACAP (100 nM), VEGF (1 nM) or a combination of both at the stated concentrations. The cell suspension was plated into wells of a 24 well plate. The medium was further supplemented with PACAP and/or VEGF every 2 days. After 7 days in culture, the NSC washed in phosphate buffered saline and dissociated with trypsin/EDTA. Cells numbers per well were counted using a Bürker chamber. VEGF was purchased from R&D Systems.

Compound: Cn1c2ccccc2c2c3c(c4c5ccccc5n(CCC#N)c4c21)CNC3=O [Gö6976, reference compound]
- effect of inhibitor on the PACAP increase of intracellular ATP [1]: entirely negate the effect of PACAP

Compound: O=S(=O)(NCCNC/C=C/c1ccc(Br)cc1)c1cccc2cnccc12 [H89, reference compound]
- effect of inhibitor on the PACAP increase of intracellular ATP [1]: unaltered

Compound: COc1cccc(-c2cc(=O)c3ccccc3o2)c1N [PD89059, reference compound]
- effect of MEK inhibitor on the PACAP induction of AP-1 (AP-1): inhibited

Compound: COc1ccc2c(c1)CC[C@@H]1[C@@H]2CC[C@]2(C)[C@@H](NCCCCCCN3C(=O)C=CC3=O)CC[C@@H]12 [U73122, reference compound]
- effect of inhibitor on the PACAP increase of intracellular ATP [1]: entirely negate the effect of PACAP

Compound: EGF: mitogen, growth factor for cell cultures from BD Biosciences
- intracellular ATP levels, and hence NSC number ([1]; PACAP 100 nM, EGF 3 nM, alone or combined, 3 days): increased intracellular ATP levels

Compound: Vasoactive intestinal peptide (HSDAVFTDNYTRLRKQMAVKKYLNSILN; ends and bridges not checked; UniProt P01282 125-152, looked up) [VIP, 28-amino acid peptide]
- intracellular ATP, and hence cell number ([1]; VIP at 1 μM, non-adherent conditions, 3 days, relative to control): statistically significant increase in intracellular ATP

Compound: vascular endothelial growth factor [VEGF]
- cell number (NSC from LVW): significant increase in cell number
